Legend:
[1] = test system: ornithine decarboxylase (ODC); test: ODC/Retinoid Bioassay: inhibition of TPA induced ornithine decarboxylase activity; assay type: in vivo, CD-1 mice; settings: for ODC activity reduction: topical, 1.7 nM (as printed in Table 2), TPA induced
Experimental: The ODC/Retinoid Bioassay is based on the method of Verma, A. K. and Boutwell, R. K., Cancer Res. (1977) 37:2196-2201. The ODC assay measures a compounds effect on the prevention of the induction of ODC, namely the effect of the retinoid compound on the inhibition of the tumor promoter 12-O-tetradecanoylphorbol-13-acetate (TPA) induced ODC activity. The assay is carried out using CD-1 mice (aged 7 to 9 weeks). The dorsal hair of the mice is shaved 3-4 days before testing. Four mice are used for each point. The test retinoids, at one of two dose levels (1.7 and 17 nmoles) dissolved in 0.2 ml of acetone is applied topically to the back of each shaved mouse. A single dose of TPA ([…]) is applied to the back of each treated mouse 30 minutes later. Control groups are treated with either acetone alone, TPA, or tretinoin. The mice are sacrificed by cervical dislocation 5 hours after TPA treatment.
The dorsal skin encompassing the shaved and TPA exposed area is excised and placed in a 100 ml beaker containing distilled water maintained at 51° C.-57° C. The skin is soaked for 50-70 seconds at this temperature with intermittent stirring. The skin is placed epidermis side up in a chilled (0°-5° C.) stainless steel plate and the epidermal layer is scraped off with a razor blade. The epidermal layers from the 4 mice are pooled and placed in a homogenization tube with 2 ml of ODA buffer ([…] with […] pyridoxal phosphate, […] ethylenediaminetetraacetic acid (EDTA), 1 mM dithiothreitol, pH 7.5). The pooled epidermal layers are homogenized for 15 seconds at 0° C. using a Polytron homogenizer at a setting of 7.5. The homogenate is centrifuged at 30,000×g and the supernatant fraction is pipetted into a storage tube and frozen for about 72 hours.
The homogenate is assayed for ODC activity as described by Verma and Boutwell to measure the release of ^14 CO2 from labeled DL(1-14C) ornithine. Incubations are carried out in disposable centrifuge tubes with center well holders containing filter paper impregnated with sodium hydroxide to absorb ^14 CO2. The incubation mixture consisted of 90 μl of L-ornithine, 350 μl of ODC buffer, 100 μl of 14C-ornithine (1.32 nm, Sp. Act:4.4 pCi/pM) and 10 μl of test sample. After incubation at 37° C. for 45 minutes, 0.5 ml of 2M chilled citric acid (4° C.) is added and incubation is continue for an additional 30 minutes to insure complete absorption of ^14 CO2. The filter paper is removed from the center well holders and set in 1 ml of water in capped scintillation vials for at least 1 hour before adding RBI 3820 scintillation cocktail. Radioactivity is measured in a Tri Carb Scintillation Counter. Results are expressed as pmol of ^14 CO2 released in 30 minutes per milligram of protein based on the specific activity of DL-14C-ornithine. The results are expressed in Table 2 below as the % reduction in ODC activity as compared to the control, for the compounds of each of the preceding Examples: […]

[2] = test system: pseudocomedone (utriculus) of the rhino mouse; test: Topical rhino mouse pseudocomedone (utriculus) reduction assay; assay type: in vivo; design: Utriculus reduction (Table 1) / Utriculus reduction (Table 3): key to the marks not given beside the values; settings: concentration 0.1 (unit not given)
Experimental: A topical assay to test for pseudocomedone (utriculus) reduction in the rhino mouse is conducted.
Each test compound and a vehicle control is applied topically to the dorsal trunk of the rhino mouse. The utriculus diameters are measured with a ocular micrometer. […] Kligman, et al., The Effect on Rhino Mouse Skin of Agents which Influence Keratinization and Exfoliation, J. Invest. Derm. […] Van Scott, Experimental Animal Integumental Models for Screening Potential Dermatologic Drugs, In Pharmacology of the Skin, eds. […] Mann, Hair Loss and Cyst Formation in Hairless and Rhino Mutant Mice, Anat. Rec. […] Mezick, et al., Topical and Systemic Effects of Retinoids on Horn-Filled Utriculus Size in the Rhino Mouse. A Model to Quantify Antikeratinizing Effects of Retinoids, J. Invest. Derm. […] Mezick, et al., Anti-Acne Activity of Retinoids in the Rhino Mouse, In Models in Dermatology, eds.
(§1) The dorsal trunk of the rhino mouse is the test site. Each test compound is dissolved in alcohol:propylene glycol (70:30, v:v) or other suitable vehicle and topically applied (0.1 ml) to the dorsal trunk once daily, five consecutive days/week for two weeks. Also, administration may be oral (p.o.) in a suitable vehicle. Following treatment, the animals are sacrificed by cervical dislocation. The treated dorsal trunk skin is removed from the animal and placed into 0.5% acetic acid for up to 18 hours at approximately 4° C. After this, the epidermis with the acne cysts is separated from the underlying dermis. The sheets of epidermis are processed by routine methods to permanent whole mounts for microscopic examination. Also, full-thickness samples may be taken, stained (H&E), and examined by light microscopy.
The utriculus diameters are measured with an ocular micrometer to compare effects of test compounds to vehicle control and/or reference compound on cyst reduction. Light microscopy is used to determine effects on cell differentiation.
Another topical assay is conducted following the procedure described above.
Each test compound and a vehicle control was applied topically to the dorsal trunk of the rhino mouse. The utriculus diameters are measured with a ocular micrometer. […] Kligman, et al., J. Invest. […] Van Scott, Pharmacology of the Skin, eds. […] Mann, Anat. […] Mezick, et al, J. Invest. […] Mezick et al., Models in Dermatology, eds.
as §1, with “(70:30,v:v)” for “(70:30, v:v)”, “weeks.” for “weeks. Also, administration may be oral (p.o.) in a suitable vehicle.”, “"acne cysts"” for “acne cysts”, “are” for “may be”, “(H&E)” for “(H&E),”, “microscope.” for “microscopy.”

CC1=C(/C=C/C(C)=C\C=C\C(C)=C\C(=O)OCC(=O)COC(=O)/C=C(C)/C=C/C=C(C)\C=C\C2=C(C)CCCC2(C)C)C(C)(C)CCC1 [Compound 4, 1,3-bis-(9-cis-retinoyloxy)-2-propanone]
ODC activity reduction [1]: +++

CC1=C(/C=C/C(C)=C\C=C\C(C)=C\C(=O)OCC(=O)CO)C(C)(C)CCC1 [Compound 8, 1-(9-cis-retinoyloxy)-3-hydroxy-2-propanone]
ODC activity reduction [1]: +++

CCCCCCCC/C=C\CCCCCCCC(=O)OCC(COC(=O)/C=C(C)/C=C/C=C(C)\C=C\C1=C(C)CCCC1(C)C)OC(=O)CCCCCCC/C=C\CCCCCCCC (stereo not drawn) [Compound 9, 1-(9-cis-retinoyloxy)-2,3-dioleoylpropane]
ODC activity reduction [1]: ++

CC1=C(/C=C/C(C)=C\C=C\C(C)=C\C(=O)OCC(=O)c2ccccc2)C(C)(C)CCC1 [Compound 5, 9-cis-retinoyloxy methyl phenyl ketone]
Utriculus reduction (Table 3) [2]: ++ | ODC activity reduction [1]: ++

CC1=C(/C=C/C(C)=C\C=C\C(C)=C\C(=O)OCOC(=O)C(C)(C)C)C(C)(C)CCC1 [Compound 6, 9-cis-retinoyloxymethyl 2,2-dimethylpropanoate]
Utriculus reduction (Table 3) [2]: +++ | ODC activity reduction [1]: +++

CCCCCCCCCCCCCC(=O)O[C@@H]1[C@@H](C)[C@@]2(O)[C@@H](C=C(CO)C[C@]3(O)C(=O)C(C)=C[C@@H]23)[C@@H]2C(C)(C)[C@]12OC(C)=O [TPA, 12-O-tetradecanoylphorbol-13-acetate, reference compound]
ODC activity reduction (TPA control) ([1]; TPA 17.0 nM, control): 0 nM ^14 CO2 /30 min/mg Protein

CC1=C(/C=C/C(C)=C\C=C\C(C)=C\C(=O)ON2C(=O)CCC2=O)C(C)(C)CCC1 [Compound 10, Succinimidyl 9-cis-retinoate]
Utriculus reduction (Table 3) [2]: ++ | ODC activity reduction [1]: +++

— patent publication US5837728A, “9-cis retinoic acid esters and amides and uses thereof” (priority 1995, dated 1998)
